Read-outs that look alike come from different tables or passages of the source.
How the values were obtained:
[1] = system: CXCL10, IL17α, IL22, IL36γ, CCL20, SerpinB4 gene expression in Th17 stimulated human skin; test: Th17 stimulated human skin explants, RT-qPCR of biomarkers; assay type: cell-based; conditions: Homo sapiens, 10 μM, calculated to Th17 stimulated control, three skin donors
Description: (§1) Human skin biopsy tissue was stimulated to induce a Th17 immuno-phenotype using a method derived from Feghali-Bostwick et al. Induction of a Th17 phenotype in human skin—a mimic of dermal inflammatory diseases, Methods and Protocols, 2, 45 (2019). The pharmacodynamic assay described therein involves a similar paradigm to elicit a Th2 response and is used to evaluate the therapeutic potential of the active compounds (e.g., BETi1; and
(§2) Freshly excised healthy human skin tissue from abdominoplasties is defatted, cleaned and sectioned into 7 mm biopsies. The biopsies are placed in Transwell® inserts with the epidermis apical and exposed to air and the dermis submerged in media in the basal chamber. The biopsies are pre-treated overnight at 37° C., 5% CO2 with different compounds and controls added to the media in the basal chamber.
(§3) The next day, contents of the basal chamber is replaced with fresh media containing the test compound (listed below) and a stimulation cocktail for either Th2 inflammation (proprietary of service provider cocktail) or Th17 inflammation (mix of antibodies against CD3, CD28, IL-4, IFNγ and recombinant IL-1β, IL-6, IL-21, TGF-β). The biopsies are incubated at 37° C., 5% CO2 for a further 24 hrs.
(§4) A list of all the treatments is provided below: • 1. Untreated control (for both stimulations) • 2. Th2 stimulated control • 3. Th17 stimulated control • 4. Th2+BETia at 0.01, 0.04, 0.16, 0.63, 2.50, and 10 μM • 5. Th2+BETi1 at 0.01, 0.04, 0.16, 0.63, 2.50, and 10 μM • 6. Th2+Ruxolitinib at 0.01, 0.04, 0.16, 0.63, 2.50, and 10 μM • 7. Th2+betamethasone valerate 210 μM (equivalent to 0.01%) • 8. Th17+BETia at 10 μM • 9. Th17+BETi1 at 10 μM • 10. Th17+Ruxolitinib at 10 μM • 11. Th17+betamethasone valerate 210 μM (equivalent to 0.01%)
(§5) After harvesting, the biopsies are cut in half, and one half is homogenized and used for RNA extraction by standard methods and inflammatory pathways is assessed by RT-qPCR. The ability of BETi1 or BETia to inhibit the activity of up to six biomarkers per stimulation is reported as percent activity calculated to stimulated control and fold change in gene expression calculated to untreated control with respect to Th2 (IL4, IL13, IL31, CCL17, CCL26, CCL2) and Th17 (CXCL10, IL17α, IL22, IL36γ, CCL20, SerpinB4). Statistical analysis is performed on data sets from all 3 donors combined and compares the percent inhibition of each biomarker by each treatment calculated to its respective vehicle.
(§6) qPCR values were calculated using the relative quantification approach outlined by Livak, et al (2001) (Section 9, Reference 2). The Ct values (threshold cycle) defined as the fractional cycle number at which the amount of amplified target reaches a fixed threshold, were normalised to the Ct value of an internal biomarker or ‘housekeeping gene’ (GAPDH). The higher limit of detection was set at a Ct value of 40, and any target having not reached Ct by 40 cycles was set to this value. The delta Ct values (dt(Ct)) refers to the Ct of the gene of interest minus the Ct of the internal biomarker. The ddt(Ct) is the dt(Ct) value of the gene minus the average dt(Ct) value of the untreated samples. The ddt(Ct) is converted to power by the equation; =power(2,dt(Ct)). Fold change was calculated as ratio of the power of the gene of interest divided by the average power of the untreated samples. This normalizes the untreated samplers to a value of 1. For the comparison of multiple skin donors, the stimulated samples were normalized to 100% maximum activity (such to normalize variability between different skin donors). Percent activity was calculated as the percent increase or decrease in stimulation compared to the stimulated samples set at 100% maximum activity. Percent change was calculated as: Inhibition=(100−(avg % activity/stimulated)*100). Statistical analysis was performed using One-way ANOVA with Dunnett's Multiple Comparisons (non parametric). […]

[2] = system: IL4, IL13, IL31, CCL17, CCL26, CCL2 gene expression in Th2 stimulated human skin; test: Th2 stimulated human skin explants, RT-qPCR of biomarkers; assay type: cell-based; conditions: for inhibition at 0.01 µM / inhibition at 0.04 µM / inhibition at 0.16 µM / inhibition at 0.63 µM / inhibition at 2.5 µM / inhibition at 10 µM: Homo sapiens, calculated to Th2 stimulated control; for inhibition at 2.5 µM: 2.50 μM
Description: as §1, §2, §3, §4, §5, §6

[3] = read-out: % inhibition Serpinβ4
[4] = 10 μM, read-out: % Inhibition CCL26
[5] = 10 μM, read-out: % inhibition CCL2
[6] = 10 μM, read-out: % inhibition IL4
[7] = 10 μM, read-out: % inhibition IL13

Compound	inhibition at 10 µM ([1]; read-out: % inhibition CCL20) [%]	inhibition at 10 µM ([1]; read-out: % inhibition CXCL10) [%]	inhibition at 10 µM ([1]; read-out: % inhibition IL22) [%]	inhibition at 10 µM [1, 3] [%]	inhibition at 0.01 µM ([2]; read-out: % Inhibition CCL17) [%]	inhibition at 0.01 µM ([2]; read-out: % Inhibition CCL26) [%]	inhibition at 0.01 µM ([2]; read-out: % Inhibition IL31) [%]	inhibition at 0.01 µM ([2]; read-out: % inhibition CCL2) [%]	inhibition at 0.01 µM ([2]; read-out: % inhibition IL4) [%]	inhibition at 0.01 µM ([2]; read-out: % inhibition IL13) [%]	inhibition at 0.04 µM ([2]; read-out: % Inhibition CCL26) [%]	inhibition at 0.04 µM ([2]; read-out: % inhibition CCL2) [%]	inhibition at 0.04 µM ([2]; read-out: % inhibition IL4) [%]	inhibition at 0.16 µM ([2]; read-out: % Inhibition IL31) [%]	inhibition at 0.16 µM ([2]; read-out: % inhibition CCL2) [%]	inhibition at 0.16 µM ([2]; read-out: % inhibition IL13) [%]	inhibition at 0.63 µM ([2]; read-out: % Inhibition CCL17) [%]	inhibition at 0.63 µM ([2]; read-out: % Inhibition CCL26) [%]	inhibition at 0.63 µM ([2]; read-out: % inhibition CCL2) [%]	inhibition at 0.63 µM ([2]; read-out: % inhibition IL13) [%]	other results
CCNC(=O)c1cc2c(-c3ccn(C)c(=O)c3Oc3c(C)cc(F)cc3C)cn(C)c(=O)c2[nH]1 [BETia]	40.1	71.3	79.7	71.2	28.2	8.3	< 0	< 0	< 0	22	~38	< 0	< 0	19.1	< 0	27.7	25.4	2.8	< 0	22.3	inhibition at 10 µM ([1]; read-out: % inhibition IL36γ): 78.2%; inhibition at 0.04 µM ([2]; read-out: % Inhibition IL31): < 0%; inhibition at 0.04 µM ([2]; read-out: % inhibition IL13): 15.8%; inhibition at 0.16 µM ([2]; read-out: % Inhibition CCL17): 31.8%; inhibition at 0.16 µM ([2]; read-out: % Inhibition CCL26): 46.3%; inhibition at 0.16 µM ([2]; read-out: % inhibition IL4): 56.8%; inhibition at 2.5 µM ([2]; read-out: % Inhibition CCL17): 30%; inhibition at 2.5 µM ([2]; read-out: % Inhibition CCL26): 8%; inhibition at 2.5 µM ([2]; read-out: % inhibition CCL2): < 0%; inhibition at 2.5 µM ([2]; read-out: % inhibition IL4): 57.5%; inhibition at 2.5 µM ([2]; read-out: % inhibition IL13): 24.9%; inhibition at 10 µM [2, 4]: ~8%; inhibition at 10 µM [2, 5]: 21.5%; inhibition at 10 µM [2, 6]: ~76%; inhibition at 10 µM [2, 7]: 53.4%
N#CC[C@H](C1CCCC1)n1cc(-c2ncnc3[nH]ccc23)cn1 [Ruxolitinib, reference compound]	< 0	~99	~99	92	23.2	14	< 0	< 0	< 0	2.3	35.3	< 0	41.9	57.9	< 0	66.3	34	88.3	< 0	48.8	inhibition at 10 µM ([1]; read-out: % inhibition IL17α): 2.8%; inhibition at 0.04 µM ([2]; read-out: % Inhibition CCL17): 47.7%; inhibition at 0.63 µM ([2]; read-out: % Inhibition IL31): 55.9%; inhibition at 0.63 µM ([2]; read-out: % inhibition IL4): 53.8%; inhibition at 2.5 µM ([2]; read-out: % Inhibition IL31): < 0%; inhibition at 2.5 µM ([2]; read-out: % inhibition CCL2): 33%; inhibition at 2.5 µM ([2]; read-out: % inhibition IL4): 20.5%; inhibition at 2.5 µM ([2]; read-out: % inhibition IL13): 18.5%; inhibition at 10 µM ([2]; 10 μM, read-out: % Inhibition CCL17): 89.9%; inhibition at 10 µM [2, 4]: 98.5%; inhibition at 10 µM ([2]; 10 μM, read-out: % Inhibition IL31): 29.9%; inhibition at 10 µM [2, 5]: ~57%; inhibition at 10 µM [2, 6]: 48.5%; inhibition at 10 µM [2, 7]: ~54%; highest percent inhibition of CCL17 gene expression ([2]; Th2-mediated stimulation, 10 μM): ca. 90%
